For the experiment, the system named is Endogenous Huntingtin Protein (capture with MW1 (expanded polyglutamine) or MAB2166 antibody). Put plainly: Endogenous Huntingtin Protein Assay (ELISA-based Meso Scale Discovery electrochemiluminescence assay). The format is cell-based. The following applies: MSD electrochemiluminescence platform. As to the method:
Compounds of Formula (I), Formula (II), or Formula (III) were tested using the Meso Scale Discovery (MSD) Assay provided in International Application No. PCT/US2016/066042, filed on Dec. 11, 2016 and claiming priority to U.S. Provisional Application U.S. 62/265,652 filed on Dec. 10, 2015, the entire contents of which are incorporated herein by reference.
The Endogenous Huntingtin Protein assay used in Example 1 was developed using the ELISA-based MSD electrochemiluminescence assay platform.
Meso Scale Discovery (MSD) 96-well or 384-well plates were coated overnight at 4° C. with MW1 (expanded polyglutamine) or MAB2166 monoclonal antibody (for capture) at a concentration of 1 μg/mL in PBS (30 μL per well). Plates were then washed three times with 300 μL wash buffer (0.05% Tween-20 in PBS) and blocked (100 μL blocking buffer; 5% BSA in PBS) for 4-5 hours at room temperature with rotational shaking and then washed three times with wash buffer.
Samples (25 μL) were transferred to the antibody-coated MSD plate and incubated overnight at 4° C. After removal of the lysates, the plate was washed three times with wash buffer, and 25 μL of #5656S (Cell signaling; rabbit monoclonal) secondary antibody (diluted to 0.25 μg/mL in 0.05% Tween-20 in blocking buffer) was added to each well and incubated with shaking for 1 Hour at room temperature. Following incubation with the secondary antibody, the wells were rinsed with wash buffer after which 25 μL of goat anti-rabbit SULFO TAG secondary detection antibody (required aspect of the MSD system) (diluted to 0.25 μg/mL in 0.05% Tween-20 in blocking buffer) was added to each well and incubated with shaking for 1 hour at room temperature. After rinsing three times with wash buffer, 150 μL of read buffer T with surfactant (MSD) were added to each empty well, and the plate was imaged on a SI 6000 imager (MSD) according to manufacturers' instructions provided for 96- or 384-well plates.
(In general: An ELISA detects its analyte on a solid surface through an enzyme-linked reagent.)

A value given as a limit tells only on which side of the number the result lay.

One may read the IC50 as the midpoint of a concentration-inhibition curve. Lower therefore signals greater potency. The compound `CC1(C)CC(Oc2ccc(-c3ncc(-n4cncn4)cc3O)nn2)CC(C)(C)N1` [Compound 61, 2-{6-[(2,2,6,6-tetramethylpiperidin-4-yl)oxy]pyridazin-3-yl}-5-(1H-1,2,4-triazol-1-yl)pyridin-3-ol] showed a half-inhibitory concentration (IC50) not above 100 nM. On to `CC1(C)C[C@H](Oc2ccc(-c3ncc(-c4cn[nH]c4F)cc3O)nn2)[C@H](F)C(C)(C)N1` (single isomer, unassigned) [Compound 22, 5-(5-fluoro-1H-pyrazol-4-yl)-2-(6-{[(3R,4S)-3-fluoro-2,2,6,6-tetramethylpiperidin-4-yl]oxy}pyridazin-3-yl)pyridin-3-ol or 5-(5-fluoro-1H-pyrazol-4-yl)-2-(6-{[(3S,4R)-3-fluoro-2,2,6,6-tetramethylpiperidin-4-yl]oxy}pyridazin-3-yl)pyridin-3-ol], for which the IC50 was in the range of 100 to 500 nM.

In turn, `CC1(C)C[C@H](Nc2ccc(-c3ncc(-c4cn[nH]c4)cc3O)nn2)[C@@H](F)C(C)(C)N1` [Compound 8, 2-(6-{[(3R,4S)-3-fluoro-2,2,6,6-tetramethylpiperidin-4-yl]amino}pyridazin-3-yl)-5-(1H-pyrazol-4-yl)pyridin-3-ol] registered a 50% inhibitory concentration (IC50) not above 100 nM.

On to `CC1(C)CC(Oc2ccc(-c3ncc(-c4nccs4)cc3O)nn2)CC2(CC2)N1` (stereo not shown) [Compound 79, 2-{6-[(5,5-dimethyl-4-azaspiro[2.5]octan-7-yl)oxy]pyridazin-3-yl}-5-(1,3-thiazol-2-yl)pyridin-3-ol], for which the half-maximal inhibitory concentration (IC50) is not above 100 nM. Next, `CN1CCN(c2ncc(-c3ncc(-c4cn[nH]c4)cc3O)nn2)CC1` [Compound 152, 2-[3-(4-methylpiperazin-1-yl)-1,2,4-triazin-6-yl]-5-(1H-pyrazol-4-yl)pyridin-3-ol]: 500 to 1000 nM; `COc1cc(-c2cnc(-c3ccc(N4CCNC(C)C4)nn3)c(O)c2)cc2cn(C)nc12` (stereo not shown) [Compound 95, 5-(7-methoxy-2-methyl-2H-indazol-5-yl)-2-[6-(3-methylpiperazin-1-yl)pyridazin-3-yl]pyridin-3-ol]: not above 100 nM. The compound `Oc1cc(-n2nccn2)cnc1-c1ccc(N2CCN[C@@H](C3CC3)C2)nn1` [Compound 128, 2-{6-[(3S)-3-cyclopropylpiperazin-1-yl]pyridazin-3-yl}-5-(2H-1,2,3-triazol-2-yl)pyridin-3-ol] registered a 50% inhibitory concentration (IC50) not above 100 nM.

`Cn1cc2c(-c3cnc(-c4ccc(O[C@@H]5CC(C)(C)NC(C)(C)[C@@H]5F)nn4)c(O)c3)ccc(F)c2n1.Cn1cc2c(-c3cnc(-c4ccc(O[C@H]5CC(C)(C)NC(C)(C)[C@H]5F)nn4)c(O)c3)ccc(F)c2n1` (mixture of isomers) [Compound 58, 5-(7-fluoro-2-methyl-2H-indazol-4-yl)-2-(6-{[(3R,4S)-3-fluoro-2,2,6,6-tetramethylpiperidin-4-yl]oxy}pyridazin-3-yl)pyridin-3-ol and 5-(7-fluoro-2-methyl-2H-indazol-4-yl)-2-(6-{[(3S,4R)-3-fluoro-2,2,6,6-tetramethylpiperidin-4-yl]oxy}pyridazin-3-yl)pyridin-3-ol] yielded an IC50 of 500 to 1000 nM. Compound `CC1CN(c2ccc(-c3ncc(NCc4ccncc4)cc3O)nn2)CCN1` (stereo not shown) [Compound 111, 2-[6-(3-methylpiperazin-1-yl)pyridazin-3-yl]-5-{[(pyridin-4-yl)methyl]amino}pyridin-3-ol] displayed an IC50 of 500 to 1000 nM. In turn, `CC1(C)CC(Oc2ccc(-c3ncc(-n4ccnn4)cc3O)nn2)CC(C)(C)N1` [Compound 63, 2-{6-[(2,2,6,6-tetramethylpiperidin-4-yl)oxy]pyridazin-3-yl}-5-(1H-1,2,3-triazol-1-yl)pyridin-3-ol] showed an IC50 of 100 to 500 nM. With “2-(6-{[(3R,4S)-3-fluoro-2,2,6,6-tetramethylpiperidin-4-yl]oxy}pyridazin-3-yl)-5-(imidazo[1,2-b]pyridazin-6-yl)pyridin-3-ol and 2-(6-{[(3S,4R)-3-fluoro-2,2,6,6-tetramethylpiperidin-4-yl]oxy}pyridazin-3-yl)-5-(imidazo[1,2-b]pyridazin-6-yl)pyridin-3-ol [Compound 49]”, the half-inhibitory concentration (IC50) was not above 100 nM. Take `CC1(C)CC(Oc2ccc(-c3ncc(-c4ccc5nccn5n4)cc3O)nn2)CC(C)(C)N1` [Compound 65, 5-(imidazo[1,2-b]pyridazin-6-yl)-2-{6-[(2,2,6,6-tetramethylpiperidin-4-yl)oxy]pyridazin-3-yl}pyridin-3-ol]: the IC50 was not above 100 nM. Next, `[2H]C([2H])([2H])n1cc(-c2cnc(-c3ccc(N4CCC(NC(C)(C)C)C4)nn3)c(O)c2)cn1` (stereo not shown) [Compound 29, 2-{6-[3-(tert-butylamino)pyrrolidin-1-yl]pyridazin-3-yl}-5-[1-(^2H3)methyl-1H-pyrazol-4-yl]pyridin-3-ol]: not above 100 nM; `CN1CCN(c2ccc(-c3ncc(-c4cc(F)c5nn(C)cc5c4)cc3O)nn2)CC1` [Compound 101, 5-(7-fluoro-2-methyl-2H-indazol-5-yl)-2-[6-(4-methylpiperazin-1-yl)pyridazin-3-yl]pyridin-3-ol]: not above 100 nM; `COc1cc(-c2cnc(-c3cnc(N4CCN(C)CC4)nn3)c(O)c2)cc2cn(C)nc12` [Compound 150, 5-(7-methoxy-2-methyl-2H-indazol-5-yl)-2-[3-(4-methylpiperazin-1-yl)-1,2,4-triazin-6-yl]pyridin-3-ol]: not above 100 nM.

`CC[C@H]1CN(c2ccc(-c3ncc(-c4cn[nH]c4)cc3O)nn2)CCN1` [Compound 132, 2-{6-[(3S)-3-ethylpiperazin-1-yl]pyridazin-3-yl}-5-(1H-pyrazol-4-yl)pyridin-3-ol] had an IC50 not above 100 nM.

`CC(C)[C@H]1CN(c2ccc(-c3ncc(-c4cc(F)c5nn(C)cc5c4)cc3O)nn2)CCN1` [Compound 122, 5-(7-fluoro-2-methyl-2H-indazol-5-yl)-2-{6-[(3S)-3-(propan-2-yl)piperazin-1-yl]pyridazin-3-yl}pyridin-3-ol] displayed a half-maximal inhibitory concentration (IC50) not above 100 nM.

In the case of `CC1CN(c2ccc(-c3ncc(NCc4cnc5ccccc5c4)cc3O)nn2)CCN1` (stereo not shown) [Compound 112, 2-[6-(3-methylpiperazin-1-yl)pyridazin-3-yl]-5-{[(quinolin-3-yl)methyl]amino}pyridin-3-ol], the half-maximal inhibitory concentration (IC50) is 500 to 1000 nM.

The compound “2-(6-{[(3R,4S)-3-fluoro-2,2,6,6-tetramethylpiperidin-4-yl]oxy}pyridazin-3-yl)-5-[2-methyl-8-(trifluoromethyl)imidazo[1,2-a]pyridin-6-yl]pyridin-3-ol and 2-(6-{[(3S,4R)-3-fluoro-2,2,6,6-tetramethylpiperidin-4-yl]oxy}pyridazin-3-yl)-5-[2-methyl-8-(trifluoromethyl)imidazo[1,2-a]pyridin-6-yl]pyridin-3-ol [Compound 46]” gave an IC50 of 100 to 500 nM. On to “2-{6-[(3S)-3-(propan-2-yl)piperazin-1-yl]pyridazin-3-yl}-5-(1H-pyrazol-4-yl)pyridin-3-ol and 2-{6-[(3R)-3-(propan-2-yl)piperazin-1-yl]pyridazin-3-yl}-5-(1H-pyrazol-4-yl)pyridin-3-ol [Compound 121]”, for which the 50% inhibitory concentration (IC50) is not above 100 nM. On to `CC1CN(c2ccc(-c3ncc(NCc4cccc5cccnc45)cc3O)nn2)CCN1` (stereo not shown) [Compound 113, 2-[6-(3-methylpiperazin-1-yl)pyridazin-3-yl]-5-{[(quinolin-8-yl)methyl]amino}pyridin-3-ol], for which the IC50 was in the range of 500 to 1000 nM. On to `CC1(C)C[C@H](Oc2ccc(-c3ncc(-c4cn[nH]c4)cc3O)nn2)[C@H](F)C(C)(C)N1[O]` [Compound 102, [(3R,4S)-3-fluoro-4-({6-[3-hydroxy-5-(1H-pyrazol-4-yl)pyridin-2-yl]pyridazin-3-yl}oxy)-2,2,6,6-tetramethylpiperidin-1-yl]oxidanyl], for which the 50% inhibitory concentration (IC50) fell in the range of 500 to 1000 nM. “2-(6-{[(3R,4R)-3-fluoro-2,2,6,6-tetramethylpiperidin-4-yl]amino}pyridazin-3-yl)-5-[1-(^2H3)methyl-1H-pyrazol-4-yl]pyridin-3-ol or 2-(6-{[(3S,4S)-3-fluoro-2,2,6,6-tetramethylpiperidin-4-yl]amino}pyridazin-3-yl)-5-[1-(^2H3)methyl-1H-pyrazol-4-yl]pyridin-3-ol [Compound 19]”: the half-maximal inhibitory concentration (IC50) was not above 100 nM. Compound `CN(c1cnc(-c2ncc(-c3cn[nH]c3)cc2O)nn1)C1CC(C)(C)NC(C)(C)C1` [Compound 162, 2-{6-[methyl(2,2,6,6-tetramethylpiperidin-4-yl)amino]-1,2,4-triazin-3-yl}-5-(1H-pyrazol-4-yl)pyridin-3-ol] showed an IC50 not above 100 nM. In turn, `CC1(C)CC(Oc2ccc(-c3ncc(-c4cn[nH]c4)cc3O)nn2)CC2(COC2)N1` (stereo not shown) [Compound 114, 2-{6-[(6,6-dimethyl-2-oxa-5-azaspiro[3.5]nonan-8-yl)oxy]pyridazin-3-yl}-5-(1H-pyrazol-4-yl)pyridin-3-ol] had an IC50 not above 100 nM.

The values are drawn from US12577226B2, “Compounds for treating Huntington's disease” (PTC THERAPEUTICS, INC., priority 2019, dated 2026).
